The values below come from ChEMBL document CHEMBL3244223, “Drug-induced modifications of the immune response. 1. Substituted 1-phenylisoquinolines” (1979).

For experiment [1], the system named is Rattus norvegicus. As to the kind of experiment: Antiallergic activity in Sprague-Dawley rat assessed as inhibition of ovalbumin-induced wheal formation at 25 mg/kg, ip administered 5 mins prior to ovalbumin challenge measured after 30 mins by passive cutaneous anaphylaxis assay relative to control. As to conditions: route intraperitoneal; for inhibition in vivo at 25 mg/kg: Rattus norvegicus, Sprague-Dawley, ip. In kind it is functional.

The species named for experiment [2] is Canis lupus familiaris. Description: Inhibition of Mongrel dog ventricular muscle cAMP phosphodiesterase using adenosine 3',5' monophosphate as substrate at 100 uM by scintillation counting analysis in presence of [8-14C]adenosine relative to control.
A short description of experiment [3]: Antiallergic activity in antiovalbumin serum sensitized guinea pig lung slices assessed as inhibition of ovalbumin-induced histamine release at 100 uM preincubated for 5 mins followed by ovalbumin challenge measured after 15 mins by fluorometric analysis relative to control. In kind it is functional, Cavia porcellus. The following applies: for inhibition at 100 µM: Cavia porcellus, Lung.

The test system of experiment [4] is Rattus norvegicus. Description: Antiallergic activity in ip dosed Sprague-Dawley rat assessed as inhibition of ovalbumin-induced wheal formation administered 5 mins prior to ovalbumin challenge measured after 30 mins by passive cutaneous anaphylaxis assay. In kind it is functional.
Experiment [5] concerns Rattus norvegicus. Description: Antiallergic activity in Sprague-Dawley rat assessed as inhibition of ovalbumin-induced wheal formation at 25 mg/kg, po administered 10 mins prior to ovalbumin challenge measured after 30 mins by passive cutaneous anaphylaxis assay relative to control. In kind it is functional.
The subject of experiment [6] is Rattus norvegicus. As to the kind of experiment: Antiallergic activity in Sprague-Dawley rat assessed as inhibition of serotonin-induced wheal formation at 25 mg/kg, ip administered 5 mins prior to serotonin challenge measured 5 mins post serotonin challenge relative to control. In kind it is functional.
Experiment [7] concerns Rattus norvegicus. As to the kind of experiment: Antiallergic activity in Sprague-Dawley rat assessed as inhibition of ovalbumin-induced wheal formation at 6 mg/kg, ip administered 5 mins prior to ovalbumin challenge measured after 30 mins by passive cutaneous anaphylaxis assay relative to control. In kind it is functional. As to conditions: route intraperitoneal.
Experiment [8] in a line: Antiallergic activity in antiovalbumin serum sensitized guinea pig lung slices assessed as inhibition of ovalbumin-induced histamine release at 1.5 mM preincubated for 5 mins followed by ovalbumin challenge measured after 15 mins by fluorometric analysis relative to control. In kind it is functional. As to conditions: Cavia porcellus.
The nature of experiment [9]: Antiallergic activity in antiovalbumin serum sensitized guinea pig lung slices assessed as inhibition of ovalbumin-induced histamine release at 0.3 uM preincubated for 5 mins followed by ovalbumin challenge measured after 15 mins by fluorometric analysis relative to control. In kind it is functional. As to conditions: Cavia porcellus.

“And” between values parts separate entries of the source, which are not always exact repeats. Equal values may be shown once. The source made the active and inactive calls. No cut-off for these calls is given here.

One may read the inhibition in vivo as the percentage by which the read-out fell short of the control. As usually defined, the inhibition is the drop in the measured response relative to a control, in per cent. The ED50 is the midpoint of the dose-response relation. Regarding `COc1cc2c(cc1OC)C(c1ccc(C(C)(C)C)cc1)NCC2.Cl` (stereo unspecified), the values for the inhibition in vivo at 25 mg/kg in experiment [1] and in experiment [5] were 37% and 9%, respectively. For the same compound, the inhibition in experiment [2] came to 71%. In experiment [3], the inhibition at 100 µM was 13%. Also, in experiment [4], the ED50 was found to be 24 mg/kg. Moreover, the inhibition entry in [6] is “inactive”.

On to `Cn1c(=O)c2[nH]cnc2n(C)c1=O`, for which, in [2], the inhibition stood at 51%.

Regarding `COc1cc2c(cc1OC)C(c1ccccc1)=NCC2` [listing 1 of 2 here], in [2], the inhibition was 97% and 91%.

`COc1ccc2c(c1)C(c1ccccc1)NCC2.Cl` (stereo unspecified): the inhibition in vivo at 25 mg/kg in experiment [1] is 41%; in experiment [5] it was 40%. For the same compound, in [2], the inhibition stood at 12%. Besides, the inhibition at 100 µM in experiment [3] was 60%. Further, the ED50 in experiment [4] was found to be 24 mg/kg. Besides, in experiment [6], the inhibition entry was “inactive”.

For `O=C(O)c1cc(=O)c2c(OCC(O)COc3cccc4oc(C(=O)O)cc(=O)c34)cccc2o1` [CROMOLYN SODIUM], the inhibition in vivo at 6 mg/kg in experiment [7] was determined as 52%.

Take `COc1cc2c(cc1OC)C(c1ccccc1)NCC2.Cl` (stereo unspecified): the inhibition in vivo at 25 mg/kg in experiment [1] is 52%; in [5] it was 7%. The inhibition in [2] was 46%. Moreover, the inhibition at 100 µM in experiment [3] was 49%. Moreover, the ED50 in experiment [4] turned out to be 34 mg/kg. The inhibition result in experiment [6] was “inactive”.

As for `Cn1c(=O)c2nc[nH]c2n(C)c1=O` [THEOPHYLLINE], the inhibition at 1500 µM in experiment [8] was determined as 50%.

As for `c1ccc(C2=NCCc3ccccc32)cc1`, the inhibition in vivo at 25 mg/kg in experiment [1] was 0%. Further, the inhibition in experiment [2] came out at 42%. In addition, in experiment [3], the inhibition at 100 µM is 17%.

For the compound `COc1cc2c(cc1OC)C(C1CCCCC1)=NCC2`, the inhibition in vivo at 25 mg/kg in [1] came to 18%. The inhibition in experiment [2] is 70%.

As for `c1ccc2c(c1)CCNC2`, the inhibition in vivo at 25 mg/kg in [1] was found to be 18%. Besides, the inhibition in [2] turned out to be 0%. The inhibition at 100 µM in experiment [3] is 31%.

For the compound `COc1cc2c(cc1OC)C(c1nccc3cc(OC)c(OC)cc13)OC2=O` (stereo unspecified), the inhibition in vivo at 25 mg/kg in experiment [1] was determined as 16%. For the same compound, the inhibition in experiment [2] worked out at 33%.

As for `COc1cc2c(cc1OC)C(c1ccccc1)=NCC2` [listing 2 of 2 here], the “inhibition (INH)” value was 31% in experiment [1] and 91% in experiment [3].

Turning to `COc1cc2c(cc1OC)C(c1cccc(C(F)(F)F)c1)=NCC2`, in [1], the inhibition in vivo at 25 mg/kg amounted to 35%. Further, the inhibition in experiment [2] turned out to be 95%. Also, the inhibition at 100 µM in [3] turned out to be 16%.

Consider `Cc1ccc2c(c1)C(c1ccccc1)=NCC2`, for which the inhibition in vivo at 25 mg/kg in experiment [1] is 23%. Besides, in experiment [2], the inhibition was 53%. Moreover, in experiment [3], the inhibition at 100 µM was 6%.

For the compound `COc1cc2c(cc1OCc1ccccc1)C(c1ccccc1)=NCC2`, the inhibition in vivo at 25 mg/kg in experiment [1] stood at 36%. Besides, in experiment [2], the inhibition came out at 95%. The inhibition at 100 µM in experiment [3] was 18%.

For the compound `COc1cc2c(cc1OC)C(c1cccc(C(F)(F)F)c1)NCC2` (stereo unspecified), the inhibition in vivo at 25 mg/kg in experiment [1] was 29%. The inhibition in [2] was 84%. Moreover, the inhibition at 100 µM in [3] is 55%.

`COc1cc2c(cc1O)C(c1ccccc1)NCC2` (stereo unspecified): the inhibition in vivo at 25 mg/kg came out at 43% in [1] and 6% in experiment [5]. Also, the inhibition in experiment [2] came to 19%. Further, the inhibition at 100 µM in experiment [3] was 25%.

Regarding `COc1cc2c(cc1OC)C(C1CCCCC1)NCC2` (stereo unspecified), the inhibition in vivo at 25 mg/kg in experiment [1] amounted to 49%; in [5] it was 8%. Moreover, the inhibition in [2] turned out to be 19%. Besides, in experiment [3], the inhibition at 100 µM worked out at 66%.

As to `COc1cc2c(cc1OCc1ccccc1)C(c1ccccc1)NCC2` (racemic), the inhibition in vivo at 25 mg/kg in [1] and in experiment [6] (route intraperitoneal) was 29% in each case. Also, the inhibition in experiment [2] is 34%. Further, in [3], the inhibition at 100 µM amounted to 56%.

For the compound `COc1cc2c(cc1OC)C(c1ccccc1OC)=NCC2`, the inhibition in vivo at 25 mg/kg in experiment [1] was 36%. For the same compound, the inhibition in experiment [2] came out at 56%.

Consider `Clc1ccc2c(c1)C(c1ccccc1)=NCC2`, for which the inhibition in vivo at 25 mg/kg in [1] came to 34%. Besides, in experiment [2], the inhibition came out at 44%. Besides, the inhibition at 100 µM in experiment [3] is 0%.

In the case of `COc1cc2c(cc1OC)C(Cc1cc(OC)c(OCc3ccccc3)cc1Br)NCC2` (racemic), the inhibition in vivo at 25 mg/kg in [1] amounted to 0%. For the same compound, the inhibition in experiment [2] is 45%. Besides, the inhibition at 100 µM in [3] was 27%.

Turning to `COc1cc2c(cc1OC)C(Cc1cc(OCc3ccccc3)c(OC)cc1Br)NCC2` (racemic), in [1], the inhibition in vivo at 25 mg/kg came to 0%. Besides, the inhibition in experiment [2] is 55%. In experiment [3], the inhibition at 100 µM is 33%.

Regarding `CC(C)NCC(O)c1ccc(O)c(O)c1` (stereo unspecified) [ISOPROTERENOL], the inhibition at 0.3 µM in [9] is 49%.

With `Cc1ccc2c(c1)C(c1ccccc1)NCC2` (stereo unspecified), the results for the inhibition in vivo at 25 mg/kg in [1] and in experiment [5] were 51% and 17%, respectively. Moreover, in experiment [2], the inhibition came to 4%. Further, the inhibition at 100 µM in experiment [3] was determined as 0%.

As for `COc1cc2c(cc1OC)C(c1ccccc1OC)NCC2` (stereo unspecified), the inhibition in vivo at 25 mg/kg in experiment [1] worked out at 24%. The inhibition in [2] is 34%. In addition, in [3], the inhibition at 100 µM is 46%.

As to `CCOC(=O)C(=O)N1CCc2cc(OC)c(OCc3ccccc3)cc2C1c1ccccc1` (stereo unspecified), the inhibition in vivo at 25 mg/kg in experiment [1] turned out to be 18%. Moreover, in experiment [2], the inhibition amounted to 0%. The inhibition at 100 µM in [3] came out at 0%.

Consider `c1ccc(C2NCCc3ccccc32)cc1` (stereo unspecified), for which the inhibition in vivo at 25 mg/kg in [1] worked out at 17%. Further, the inhibition in experiment [2] was found to be 7%. In addition, in experiment [3], the inhibition at 100 µM was determined as 46%.

In the case of `CI.COc1cc2c(cc1OC)C(c1ccccc1)=NCC2`, in experiment [1], the inhibition in vivo at 25 mg/kg was determined as 22%. The “inhibition (INH)” value in [3] was 63%.

For `COc1cc2c(cc1O)C(c1ccccc1)=NCC2`, the inhibition in vivo at 25 mg/kg in [1] was determined as 46%. The inhibition in [2] came to 83%. The inhibition at 100 µM in experiment [3] turned out to be 36%.

With `COc1cc2c(cc1OC)C1C(=O)Cc3ccccc3CN1CC2` (stereo unspecified), the inhibition in vivo at 25 mg/kg in [1] was found to be 18%. Also, the inhibition in [2] turned out to be 64%. Also, the inhibition at 100 µM in [3] amounted to 43%.
